pIC50: −log10 of the molar value.
Key:
recombinant human PDE5 = biological target: T1, recombinant human PDE5 (Homo sapiens, UniProt O76074); experiment: In vitro PDE5 inhibitory activity (IMAP FP phosphodiesterase assay); type: biochemical; conditions: purified PDE5, 50 nM TAMRA-cGMP, 1.5 h at 30 °C; 10 concentrations, at least two replicates; read-out: PDE5 Inhibition IC50
T1 construct: purchased BPS Biosciences, San Diego, CA, USA
Protocol: Phosphodiesterase Assay: 5 U/mL of purified PDE5 (BPS Biosciences, San Diego, CA, USA) was added to the wells of black 96-well non-binding plates. Immediately, the protein was treated with the compound or vehicle control and 50 nM TAMRA-cGMP and 50 nM Fluourescein-cAMP (Molecular Devices, Sunnyvale, CA, USA) were added to each assay well. The plates were incubated for 1.5 h at 30 °C. After incubation, the IMAP FP Phosphodiesterase Evaluation Assay (Molecular Devices, Sunnyvale, CA, USA) binding reagent was added to each well and the plates were incubated for an additional 30 min at 30 °C. FP was measured according to manufacturer’s specifications using a Biotech Synergy 4 plate reader. PDE activity was expressed by an IC50 value (50% inhibitory concentration). Data analysis was done through dose-response analysis, which was repeated at least twice to confirm the reproducibility of the IC50 values.
All the synthesized final THβC compounds were tested for their ability to inhibit recombinant human PDE5. Most of the compounds were evaluated in two steps. The first step was the determination of the percentage inhibition at a screening dose of 10 μM performed in triplicate. For compounds displaying a percentage of inhibition >50%, the IC50 was then determined by testing a range of 10 concentrations with at least two replicates per concentration (Table 2).

Row | SMILES | melting point [°C] | pIC50 (recombinant human PDE5)
1 | O=C1[C@H]2Cc3c([nH]c4ccccc34)[C@H](c3ccc(Cl)cc3)N2C(=O)CN1CCCCO [Compound 6g, (6S,12aR)-6-(4-Chloro-phenyl)-2-(4-hydroxy-butyl)-2,3,6,7,12,12a-hexahydropyrazino[1’,2’:1,6]pyrido[3,4-b]indole-1,4-dione] | 200 to 203 | < 5.00
2 | O=C1[C@@H]2Cc3c([nH]c4ccccc34)[C@H](c3ccc(Cl)cc3)N2C(=O)CN1CCO [Compound 6i, (6S,12aS)-6-(4-Chloro-phenyl)-2-(2-hydroxy-ethyl)-2,3,6,7,12,12a-hexahydro-pyrazino[1’,2’:1,6]pyrido[3,4-b]indole-1,4-dione] | 231 to 233 | < 5.00
3 | NCCCCN1CC(=O)N2[C@@H](c3ccc(Cl)cc3)c3[nH]c4ccccc4c3C[C@H]2C1=O [Compound 6l, (6S,12S)-2-(4-Amino-butyl)-6-(4-chloro-phenyl)-2,3,6,7,12,12a-hexahydro-pyrazino[1’,2’:1,6]pyrido[3,4-b]indole-1,4-dione] | – | < 5.00
4 | NCCCCN1CC(=O)N2[C@H](c3ccc(Cl)cc3)c3[nH]c4ccccc4c3C[C@H]2C1=O [Compound 6p, (6R,12S)-2-(4-Amino-butyl)-6-(4-chloro-phenyl)-2,3,6,7,12,12a-hexahydro-pyrazino[1’,2’:1,6]pyrido[3,4-b]indole-1,4-dione] | – | < 5.00
5 | O=C1[C@H]2Cc3c([nH]c4ccccc34)[C@H](c3ccc(Br)cc3)N2C(=O)CN1CCO [Compound 7e, (6S,12R)-6-(4-Bromo-phenyl)-2-(2-hydroxy-ethyl)-2,3,6,7,12,12a-hexahydro-pyrazino[1’,2’:1,6]pyrido[3,4-b]indole-1,4-dione] | – | < 5.00
6 | NCCN1CC(=O)N2[C@@H](c3ccc(Br)cc3)c3[nH]c4ccccc4c3C[C@@H]2C1=O [Compound 7f, (6S,12R)-2-(2-Amino-ethyl)-6-(4-bromo-phenyl)-2,3,6,7,12,12a-hexahydro-pyrazino[1’,2’:1,6]pyrido[3,4-b]indole-1,4-dione] | – | < 5.00
7 | O=C1[C@H]2Cc3c([nH]c4ccccc34)[C@H](c3ccc(Br)cc3)N2C(=O)CN1CCCCO [Compound 7g, (6S,12R)-6-(4-Bromo-phenyl)-2-(4-hydroxy-butyl)-2,3,6,7,12,12a-hexahydropyrazino[1’,2’:1,6]pyrido[3,4-b]indole-1,4-dione] | – | < 5.00
8 | O=C1[C@@H]2Cc3c([nH]c4ccccc34)[C@H](c3ccc(Br)cc3)N2C(=O)CN1CCO [Compound 7i, (6S,12S)-6-(4-Bromo-phenyl)-2-(2-hydroxy-ethyl)-2,3,6,7,12,12a-hexahydro-pyrazino[1’,2’:1,6]pyrido[3,4-b]indole-1,4-dione] | – | < 5.00
9 | NCCN1CC(=O)N2[C@@H](c3ccc(Br)cc3)c3[nH]c4ccccc4c3C[C@H]2C1=O [Compound 7j, (6S,12S)-2-(2-Amino-ethyl)-6-(4-bromo-phenyl)-2,3,6,7,12,12a-hexahydro-pyrazino[1’,2’:1,6]pyrido[3,4-b]indole-1,4-dione] | – | < 5.00
10 | O=C1[C@@H]2Cc3c([nH]c4ccccc34)[C@H](c3ccc(Br)cc3)N2C(=O)CN1CCCCO [Compound 7k, (6S,12S)-6-(4-Bromo-phenyl)-2-(4-hydroxy-butyl)-2,3,6,7,12,12a-hexahydropyrazino[1’,2’:1,6]pyrido[3,4-b]indole-1,4-dione] | – | < 5.00
11 | NCCCCN1CC(=O)N2[C@@H](c3ccc(Br)cc3)c3[nH]c4ccccc4c3C[C@H]2C1=O [Compound 7l, (6S,12S)-2-(4-Amino-butyl)-6-(4-bromo-phenyl)-2,3,6,7,12,12a-hexahydro-pyrazino[1’,2’:1,6]pyrido[3,4-b]indole-1,4-dione] | – | < 5.00

Further lines, results first:

Row | melting point [°C] | pIC50 (recombinant human PDE5) | SMILES
12 | 230 to 233 | < 5.00 | O=C1[C@H]2Cc3c([nH]c4ccccc34)[C@@H](c3ccc(Cl)cc3)N2C(=O)CN1CCO [Compound 6a, (6R,12aR)6-(4-Chloro-phenyl)-2-(2-hydroxy-ethyl)-2,3,6,7,12,12a-hexahydro-pyrazino[1’,2’:1,6]pyrido[3,4-b]indole-1,4-dione]
13 | 231 to 234 | 5.44 | NCCN1CC(=O)N2[C@H](c3ccc(Cl)cc3)c3[nH]c4ccccc4c3C[C@@H]2C1=O [Compound 6b, (6R,12aR)-2-(2-Amino-ethyl)-6-(4-chloro-phenyl)-2,3,6,7,12,12a-hexahydro-pyrazino[1’,2’:1,6]pyrido[3,4-b]indole-1,4-dione]
14 | 228 to 230 | 6.92 | O=C1[C@H]2Cc3c([nH]c4ccccc34)[C@@H](c3ccc(Cl)cc3)N2C(=O)CN1CCCCO [Compound 6c, (6R,12aR)-6-(4-Chloro-phenyl)-2-(4-hydroxy-butyl)-2,3,6,7,12,12a-hexahydropyrazino[1’,2’:1,6]pyrido[3,4-b]indole-1,4-dione]
15 | – | < 5.00 | NCCCCN1CC(=O)N2[C@H](c3ccc(Cl)cc3)c3[nH]c4ccccc4c3C[C@@H]2C1=O [Compound 6d, (6R,12R)-2-(4-Amino-butyl)-6-(4-chloro-phenyl)-2,3,6,7,12,12a-hexahydro-pyrazino[1’,2’:1,6]pyrido[3,4-b]indole-1,4-dione]
16 | 202 to 206 | 5.33 | O=C1[C@H]2Cc3c([nH]c4ccccc34)[C@H](c3ccc(Cl)cc3)N2C(=O)CN1CCO [Compound 6e, (6S,12aR)-6-(4-Chloro-phenyl)-2-(2-hydroxy-ethyl)-2,3,6,7,12,12a-hexahydro-pyrazino[1’,2’:1,6]pyrido[3,4-b]indole-1,4-dione]
17 | 200 to 204 | < 5.00 | NCCN1CC(=O)N2[C@@H](c3ccc(Cl)cc3)c3[nH]c4ccccc4c3C[C@@H]2C1=O [Compound 6f, (6S,12aR)-2-(2-Amino-ethyl)-6-(4-chloro-phenyl)-2,3,6,7,12,12a-hexahydro-pyrazino[1’,2’:1,6]pyrido[3,4-b]indole-1,4-dione]
18 | 200 to 202 | 5.51 | NCCCCN1CC(=O)N2[C@@H](c3ccc(Cl)cc3)c3[nH]c4ccccc4c3C[C@@H]2C1=O [Compound 6h, (6S,12R)-2-(4-Amino-butyl)-6-(4-chloro-phenyl)-2,3,6,7,12,12a-hexahydro-pyrazino[1’,2’:1,6]pyrido[3,4-b]indole-1,4-dione]
19 | – | 6.08 | O=C1[C@H]2Cc3c([nH]c4ccccc34)[C@@H](c3ccc(Br)cc3)N2C(=O)CN1CCO [Compound 7a, (6R,12R)-6-(4-Bromo-phenyl)-2-(2-hydroxy-ethyl)-2,3,6,7,12,12a-hexahydro-pyrazino[1’,2’:1,6]pyrido[3,4-b]indole-1,4-dione]
20 | – | 5.62 | NCCN1CC(=O)N2[C@H](c3ccc(Br)cc3)c3[nH]c4ccccc4c3C[C@@H]2C1=O [Compound 7b, (6R,12R)-2-(2-Amino-ethyl)-6-(4-bromo-phenyl)-2,3,6,7,12,12a-hexahydro-pyrazino[1’,2’:1,6]pyrido[3,4-b]indole-1,4-dione]
21 | – | 7.00 | O=C1[C@H]2Cc3c([nH]c4ccccc34)[C@@H](c3ccc(Br)cc3)N2C(=O)CN1CCCCO [Compound 7c, (6R,12R)-6-(4-Bromo-phenyl)-2-(4-hydroxy-butyl)-2,3,6,7,12,12a-hexahydropyrazino[1’,2’:1,6]pyrido[3,4-b]indole-1,4-dione]
22 | – | 5.57 | NCCCCN1CC(=O)N2[C@H](c3ccc(Br)cc3)c3[nH]c4ccccc4c3C[C@@H]2C1=O [Compound 7d, (6R,12R)-2-(4-Amino-butyl)-6-(4-bromo-phenyl)-2,3,6,7,12,12a-hexahydro-pyrazino[1’,2’:1,6]pyrido[3,4-b]indole-1,4-dione]
23 | – | 5.49 | NCCCCN1CC(=O)N2[C@@H](c3ccc(Br)cc3)c3[nH]c4ccccc4c3C[C@@H]2C1=O [Compound 7h, (6S,12R)-2-(4-Amino-butyl)-6-(4-bromo-phenyl)-2,3,6,7,12,12a-hexahydro-pyrazino[1’,2’:1,6]pyrido[3,4-b]indole-1,4-dione]
24 | – | 6.22 | O=C1[C@@H]2Cc3c([nH]c4ccccc34)[C@@H](c3ccc(Br)cc3)N2C(=O)CN1CCO [Compound 7m, (6R,12S)-6-(4-Bromo-phenyl)-2-(2-hydroxy-ethyl)-2,3,6,7,12,12a-hexahydro-pyrazino[1’,2’:1,6]pyrido[3,4-b]indole-1,4-dione]
25 | – | 6.05 | NCCN1CC(=O)N2[C@H](c3ccc(Br)cc3)c3[nH]c4ccccc4c3C[C@H]2C1=O [Compound 7n, (6R,12S)-2-(2-Amino-ethyl)-6-(4-bromo-phenyl)-2,3,6,7,12,12a-hexahydro-pyrazino[1’,2’:1,6]pyrido[3,4-b]indole-1,4-dione]
26 | – | 6.09 | O=C1[C@@H]2Cc3c([nH]c4ccccc34)[C@@H](c3ccc(Br)cc3)N2C(=O)CN1CCCCO [Compound 7o, (6R,12S)-6-(4-Bromo-phenyl)-2-(4-hydroxy-butyl)-2,3,6,7,12,12a-hexahydropyrazino[1’,2’:1,6]pyrido[3,4-b]indole-1,4-dione]
27 | – | 5.46 | NCCCCN1CC(=O)N2[C@H](c3ccc(Br)cc3)c3[nH]c4ccccc4c3C[C@H]2C1=O [Compound 7p, (6R,12S)-2-(4-Amino-butyl)-6-(4-bromo-phenyl)-2,3,6,7,12,12a-hexahydro-pyrazino[1’,2’:1,6]pyrido[3,4-b]indole-1,4-dione]
